Laboratory results as given in US4204039A, “Process for producing deoxynarasin antibiotics” (Eli Lilly and Company, priority 1978, dated 1980).
Structures can show the parent of a compound that is named as a salt.

Experiments:
Eimeria tenella = assay: chick feeding experiment, Eimeria tenella challenge; type: in vivo, chickens; settings: 100 ppm in diet; Na salt
Description: A feeding experiment in young chickens confirms that the deoxynarasin antibiotics have anticoccidial activity in vivo.
^1 Two cages of four chickens each per treatment.
^2 Maximum possible score = 4.00.

stability in alcohols = type: physicochemical; settings: free acid; e.g. methanol, room temperature, four hours
Description: For example, 20-deoxynarasin acid (435.1 mg) was dissolved in methanol (40 ml) and allowed to stand at room temperature for four hours. The solution was then evaporated to dryness under vacuum; the residue was redissolved in dioxane and lyophilized to give 417.8 mg of 20-deoxy-epi-17-narasin acid.

solubility = type: physicochemical

With `CCC(C(=O)O)C1OC(C(C)C(O)C(C)C(=O)C(CC)C2OC3(C=CCC4(CCC(C)(C5CCC(O)(CC)C(C)O5)O4)O3)C(C)CC2C)C(C)CC1C` (stereo not shown) [20-deoxynarasin (Na salt), 20-deoxynarasin] the “mortality (in words)” value (Eimeria tenella) was “prevented mortality”, the “number of lesions (in words)” value (Eimeria tenella) was “decreased the number of lesions” and the “weight gains (in words)” value (Eimeria tenella) was “improved weight gains”.

For `CCC(C(=O)O)C1OC(C(C)C(O)C(C)C(=O)C(CC)C2OC3(C=CCC4(CCC(C)(C5CCC(O)(CC)C(C)O5)O4)O3)C(C)CC2C)C(C)CC1C` (stereo not shown) [20-deoxynarasin], the stability in alcohols (stability in alcohols) was “unstable in alcohols, converting to 20-deoxy-epi-17-narasin free acid”, the solubility (solubility; methanol, ethanol, dimethylformamide, dimethyl sulfoxide, ethyl acetate, chloroform, acetone and benzene) was “soluble” and the solubility (solubility; nonpolar organic solvents such as hexane) was “only slightly soluble”. For the same compound, the solubility (solubility; water) was “insoluble”.
